Reference: PubChem BioAssay (NCI)
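Grown in 96-well plates, cells were treated for 48 hours with each compound at five concentrations. Insufficient inhibition: endpoint recorded as highest concentration tested. The concentration for 50% growth inhibition is given as GI50. TGI is the concentration that stops growth completely.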

How the values were obtained:
Assay in all cases: inhibition of tumour cell growth, NCI panel, 48 h
SK-MEL-28 melanoma = system: SK-MEL-28 melanoma
SF-268 CNS = system: SF-268 CNS
K-562 leukemia = system: K-562 leukemia
A498 renal = system: A498 renal
SN12C renal = system: SN12C renal
HCT-116 colon = system: HCT-116 colon
U251 CNS = system: U251 CNS
OVCAR-8 ovarian = system: OVCAR-8 ovarian
RPMI-8226 leukemia = system: RPMI-8226 leukemia
HCC-2998 colon = system: HCC-2998 colon

Row | Structure (SMILES) | GI50 (SK-MEL-28 melanoma) [µM] | TGI (SK-MEL-28 melanoma) [µM] | GI50 (SF-268 CNS) [µM] | TGI (SF-268 CNS) [µM] | GI50 (K-562 leukemia) [µM] | TGI (K-562 leukemia) [µM] | GI50 (A498 renal) [µM] | TGI (A498 renal) [µM] | GI50 (SN12C renal) [µM] | TGI (SN12C renal) [µM] | GI50 (HCT-116 colon) [µM] | TGI (HCT-116 colon) [µM] | GI50 (U251 CNS) [µM] | TGI (U251 CNS) [µM] | GI50 (OVCAR-8 ovarian) [µM] | TGI (OVCAR-8 ovarian) [µM] | GI50 (RPMI-8226 leukemia) [µM] | TGI (RPMI-8226 leukemia) [µM] | GI50 (HCC-2998 colon) [µM] | TGI (HCC-2998 colon) [µM]
1 | COc1ccc(C(=O)/C=C/c2cc3ccccc3[nH]c2=O)cc1 | 33.9 | > 67.4 | 18.1 | 43 | > 57.6 | > 100 | > 38.4 | > 100 | 21.1 | > 100 | 14.7 | 24.8 | 17.5 | 43 | 21.7 | > 100 | 18.4 | > 100 | 17.3 | 31.3
2 | O=S(=O)(NCCNc1cc(-c2cn(-c3ccccc3)nc2-c2cccc(O)c2)ccn1)c1ccc(C(F)(F)F)cc1 | 2.71 | 9.83 | 3.42 | 17.3 | 2.48 | 6.58 | 3.05 | 14.5 | 2.31 | 5.49 | 2.29 | 7.94 | 2.65 | 7.28 | 4.91 | 26.1 | 2.77 | 7.85 | 2.04 | 4.45
3 | CS(=O)(=O)c1ccc(N/N=C/c2c(-c3ccc(S(C)(=O)=O)cc3)[nH]c3ccc(F)cc23)cc1 | 1.59 | > 50 | 3.4 | > 50 | 2 | > 50 | 1.39 | 4.88 | 2.97 | > 50 | 2.68 | > 50 | 1.47 | > 50 | 1.24 | > 50 | 1.15 | 2.9 | 10.8 | > 50
4 | CCN(Cc1ccc(F)cc1)c1ccc(CO)c(Cl)c1 | 14.5 | 39.3 | 19.8 | > 55.7 | 1.57 | > 100 | 0.019 | 0.0936 | 12.1 | 33.4 | 0.0661 | 3.02 | 0.654 | 15.1 | 9.24 | 43.5 | 3.68 | 36.3 | 10.3 | 28.3
5 | CSc1nc(NC2OCC(OC(C)=O)C(OC(C)=O)C2OC(C)=O)c(N=CC=Nc2c(NC3OCC(OC(C)=O)C(OC(C)=O)C3OC(C)=O)nc(SC)n(C)c2=O)c(=O)n1C (stereo not given) | – | > 100 | – | > 100 | – | > 100 | – | > 100 | – | > 100 | – | > 100 | – | > 100 | – | > 100 | – | > 100 | – | > 100
6 | CCC1CCc2nc3sc(C(=O)Nc4ccccc4F)c(N)c3cc2C1 (stereo not given) | 11.3 | > 100 | 16.8 | > 100 | 0.402 | > 100 | 0.0575 | 0.689 | > 100 | > 100 | 1.36 | > 100 | > 100 | > 100 | > 100 | > 100 | 0.94 | > 100 | > 100 | > 100
7 | CC(=O)[CH-]C(=O)c1ccccc1.CC(=O)[CH-]C(=O)c1ccccc1.O=C([O-])C[O-].O=C([O-])C[O-].[Ti+4] | 68.1 | > 100 | > 100 | > 100 | 71.4 | > 100 | > 100 | > 100 | 60.5 | > 100 | 21.8 | > 100 | 32 | > 100 | 77 | > 100 | 49.9 | > 100 | 40.3 | > 100
8 | COc1cccc(-c2nn(-c3ccccc3)cc2-c2ccnc(NCCNS(=O)(=O)c3ccc(C(F)(F)F)cc3)c2)c1 | 5.66 | > 100 | 3.54 | > 100 | 2.87 | 19.4 | 1.66 | 6.5 | 2.27 | 5.39 | 3.27 | 15.8 | 3.54 | 13.9 | 4.07 | 46.2 | 2.42 | 7.86 | 3.36 | 24.8
9 | Cc1cc(Cl)ccc1Nc1sc(C(=O)c2cc3cc(Cl)ccc3o2)c(N)c1C#N | – | > 100 | – | 26.9 | – | > 100 | – | 19.2 | – | > 100 | – | > 100 | – | 16.2 | – | > 87.2 | – | > 62.4 | – | 7.24
10 | Nn1c(CCCl)nc2c(Br)cc(Br)cc2c1=O | – | > 100 | – | > 100 | – | > 30.6 | – | > 56.9 | – | > 84.2 | – | 53 | – | > 58 | – | > 100 | – | 58.5 | – | > 100
11 | Cc1cc(NC(=O)c2ccc(NS(=O)(=O)CCO)cc2N2CCC3(CC2)CC3)nc(N2CCC(F)(F)CC2)n1 | 16.8 | 30.7 | 13.1 | 29 | 3.59 | > 51.4 | 16.7 | 31 | 11.7 | 24.4 | 11.7 | 26.8 | 1.5 | 22.7 | 0.114 | 24.4 | 9.74 | 33.4 | 1.53 | 17.8
12 | COc1ccc(NC(=O)C(=O)C(CC2C(=O)NC(=S)NC2=O)C(=O)c2ccc3ccccc3c2)c([N+](=O)[O-])c1 (stereo not given) | – | > 100 | – | > 100 | – | > 100 | – | > 100 | – | > 100 | – | > 100 | – | > 100 | – | > 100 | – | > 100 | – | > 100
13 | Cc1cc(N(CCOS(C)(=O)=O)CCOS(C)(=O)=O)ccc1C=Nc1ccc(-c2csc(-c3ccccc3)n2)c(Cl)c1 | – | > 62.4 | – | 54.8 | – | 51 | – | 4.67 | – | 44 | – | 40.5 | – | > 64.8 | – | > 84.2 | – | > 71 | – | 15.8
14 | C/C(CC(=O)CCCC(=O)Nc1ccc(Cl)cc1Cl)=N/NC(=O)CC#N | – | > 100 | – | > 100 | – | > 100 | – | > 100 | – | > 100 | – | > 100 | – | > 100 | – | > 100 | – | > 100 | – | > 100
15 | Cc1cc(C)c(C(=O)O)c(N)c1O | – | > 100 | – | > 100 | – | > 100 | – | > 100 | – | > 100 | – | > 100 | – | > 100 | – | > 100 | – | > 100 | – | > 100
